Measurements from publication PMC6934184, “Selective DNA-PKcs inhibition extends the therapeutic index of localized radiotherapy and chemotherapy” (The Journal of Clinical Investigation, 2019).

Molecular target: T1, STK38 (NDR) (Homo sapiens, UniProt Q15208)
T1 construct: purchased Thermo Fisher Scientific (Life Technologies) SelectScreen
Assay: SelectScreen LanthaScreen
Assay type: binding
Settings: read-out: % displacement
Procedure, shortened: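 SelectScreen broad panel; activity (Z'LYTE, Adapta) plus binding formats. ATP: Km app for CSF1R Z'LYTE; 10 for CAMK1 Adapta. Readout = % per kinase.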

T1 sequence (Q15208 whole entry): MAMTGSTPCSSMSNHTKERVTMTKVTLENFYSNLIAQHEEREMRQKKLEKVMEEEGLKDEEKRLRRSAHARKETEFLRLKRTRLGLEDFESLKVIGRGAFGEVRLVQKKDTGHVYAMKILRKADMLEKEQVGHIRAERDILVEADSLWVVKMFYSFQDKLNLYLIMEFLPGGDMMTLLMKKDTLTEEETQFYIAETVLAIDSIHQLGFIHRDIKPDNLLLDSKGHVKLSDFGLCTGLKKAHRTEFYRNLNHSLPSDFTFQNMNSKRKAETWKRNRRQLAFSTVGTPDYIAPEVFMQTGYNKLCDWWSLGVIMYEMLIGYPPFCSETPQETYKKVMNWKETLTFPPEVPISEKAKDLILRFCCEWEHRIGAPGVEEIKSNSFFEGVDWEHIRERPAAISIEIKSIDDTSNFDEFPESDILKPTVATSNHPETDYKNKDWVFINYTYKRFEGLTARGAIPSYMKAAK

CN(C(=O)CN1CCOCC1)c1ccc2sc3c(-c4cccc5c(=O)cc(N6CC7CCC(C6)O7)oc45)cccc3c2c1 [NU5455]
inhibition at 1 µM: -5.9%
